Article PMC3161826 (Journal of nuclear medicine : official publication, Society …, 2010)
Where “and” joins values, the source holds several entries; their conditions need not be identical. Identical values can stand only once. Like-named read-outs stand apart in the source and are kept apart here.

Tests used:
[1] = molecular target: T1, 18-kDa translocator protein (TSPO) (Homo sapiens, UniProt P30536); assay: Competition binding assay with 3H-PK11195 in human brain tissue membranes
[2] = tested on: 18-kDa translocator protein (TSPO); assay: as above; conditions: for Ki ratio of LAB to HAB / Ki: brain tissue donors B1–B15; for Ki: read-out: Ki, MABs (single-site model), mixed-affinity binders, mean ± SEM
[3] = molecular target: 18-kDa translocator protein (TSPO); conditions: brain tissue donors B1–B15; ref Owen et al. ([6]); cited from earlier work
[4] = molecular target: T1, 18-kDa translocator protein (TSPO); assay type: binding; conditions: for Ki: unlabeled PBR28 50 nM in each well
[5] = molecular target: T1, 18-kDa translocator protein (TSPO); assay type: binding; conditions: read-out: Ki, HABs; platelets, healthy volunteers P1–P13; single class of high-affinity sites, 9 of 13
Target sequence in this assay (P30536 2-169): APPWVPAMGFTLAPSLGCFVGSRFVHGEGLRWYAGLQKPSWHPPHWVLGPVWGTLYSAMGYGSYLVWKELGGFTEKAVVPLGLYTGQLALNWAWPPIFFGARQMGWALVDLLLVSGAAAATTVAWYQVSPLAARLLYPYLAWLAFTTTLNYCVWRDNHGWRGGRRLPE

[6] = tested on: 18-kDa translocator protein (TSPO); assay type: binding, human; conditions: platelets, healthy volunteers
[7] = read-out: Ki, HABs, high-affinity binders, brain tissue donors B1–B15, mean ± SEM
[8] = read-out: Ki, LABs, low-affinity binders, brain tissue donors B1–B15, mean ± SEM

Difference in affinity between HABs and LABs ([2]; brain tissue)	Structure (SMILES)	Ki [1, 7]	Ki [1, 8]	Ki ratio of LAB to HAB [2]	Ki [2]	other results
~ 4 fold and ~ 5 fold and < 5 fold	COc1ccc(OC)c(CN(C(C)=O)c2cc(F)ccc2Oc2ccccc2)c1 [DAA1106]	2.8 ± 0.3 nM	13.1 ± 1.3 nM	4.7	4.8 ± 0.4 nM	–
~ 4 fold and < 5 fold	CCN(CC)C(=O)Cc1c(-c2ccc(OC)cc2)nn2c(C)cc(C)nc12 [DPA713]	–	–	–	–	–
–	COc1ccc(OC)c(CN(C(=O)CF)c2ccccc2Oc2ccccc2)c1 [PBR06]	8.6 ± 2 nM	149 ± 46.6 nM	17	–	–
–	COc1ccccc1CN(C(C)=O)c1cnccc1Oc1ccccc1 [PBR28, N-{[2-(methyloxy)phenyl]methyl}-N-[4-(phenyloxy)-3-pyridinyl]acetamide]	–	–	–	–	Ki ([1]; Ki, LABs, brain tissue, donors with no history of neurologic disease (B14–B33), single class of low-affinity receptors, 4 of 20): 237 ± 35 nM; Ki ([1]; read-out: Ki, HABs, brain tissue, donors with no history of neurologic disease (B14–B33), single class of high-affinity receptors, 9 of 20): 2.9 ± 0.26 nM; Mean fraction of high-affinity sites in MABs ([2]; brain tissue, donors with no history of neurologic disease): 58% ± 6.6; Fraction of high-affinity sites in MABs, range of values ([2]; brain tissue, range across MAB subjects): 38% to 83; Ki ratio of LAB to HAB [3]: 55; Reduction (%) in specific signal after block with PBR28 (50 nM), HABs ([4]; PBR28 50 nM, 3H-PK11195 specific signal, HABs, 60 min, 0.05 µM): 70% and 69.0 ± 4.6 (n = 4) %; Reduction (%) in specific signal after block with PBR28 (50 nM), LABs ([4]; PBR28 50 nM, 3H-PK11195 specific signal, LABs): 21% and 21.2 ± 4.8 (n = 4) %; Occupancy of binding sites in HABs ([4]; PBR28 at 50 nM, expected occupancy): approximately 94%; receptor occupancy at 0.05 µM ([4]; read-out: Occupancy of binding sites in LABs): ~21%; Ki [5]: 3.1 ± 0.57 nM; Mean fraction of high-affinity sites in MABs [6]: 63% ± 9.8

Structure (SMILES)	Difference in affinity between HABs and LABs ([2]; brain tissue)	Ki [1, 7]	Ki [1, 8]	Ki ratio of LAB to HAB [2]	Ki [2]	other results
CCN(CC)C(=O)Cc1c(-c2ccc(OCCCF)cc2)nc2ccc(Cl)cn12 [PBR111]	~ 4 fold and < 5 fold	15.6 ± 3.7 nM	61.8 ± 10.7 nM	4.0	30.3 ± 4.1 nM	Ki ([4]; read-out: Ki after block with PBR28 (50 nM), LABs, low-affinity binders): 51.7 ± 12.2 nM; Ki ([4]; read-out: Ki after block with PBR28 (50 nM), MABs, mixed-affinity binders): 54.4 ± 5.3 nM
